Reference: patent publication US8962600B2, “Neuroprotective compounds and their use” (The Medical College of Wisconsin, Inc., priority 2009, dated 2015)
pEC50: −log10 of the molar value.

Tests used:
3-nitrotyrosine (3-NT) = assay: 3-nitrotyrosine expression in substantia nigra, Western blot and immunostaining; type: in vivo, C57BL/6 mice
Method: (§1) For checking inflammatory and oxidative stress markers, mice were gavaged diapocynin (300 mg/kg dose) 1 day before MPTP treatment (pre-treatment) and continued for another 4 days of co-treatment with MPTP. In the sub-acute MPTP regimen, MPTP (25 mg/kg) was injected intraperitoneally once per day from day 2 to day 7. Control mice received saline at the same dosage.
(§2) Four days after MPTP treatment, mice were perfused with 4% paraformaldehyde (PFA) and post-fixed with PFA and 30% sucrose, respectively. Next, fixed brains were cut into 30 μm sections and kept in 30% sucrose-ethylene glycol solutions at −20° C. On the day of staining, sections were rinsed with phosphate-buffered saline (PBS) and incubated with different primary antibodies, including anti-IBA-1 (DAKO, Carpinteria, Calif.), anti-GFAP (Millipore, Billerica, Mass.), anti-iNOS (Santa Cruz Biotechnology, Santa Cruz, Calif.), anti-3NT (Millipore), anti-4HNE (R&D Systems, Minneapolis, Minn.) and anti-gp91phox (Santa Cruz Biotechnology) for overnight at 4° C. Appropriate secondary antibodies (Alexa Fluor 488, 594, or 555 from Invitrogen, Carlsbad, Calif.) were used followed by incubation with 10 μg/ml Hoechst 33342 for 5 min at room temperature to stain the nucleus. Sections were viewed under a Nikon inverted fluorescence microscope (model TE-2000U; Nikon, Tokyo, Japan). […]

IBA-1 = IBA-1 expression in substantia nigra (microglial activation), immunostaining; type: in vivo, C57BL/6 mice; details: diapocynin 300 mg/kg gavage, 1 day pre-treatment + 4 days co-treatment with MPTP 25 mg/kg i.p.
Method: as §1, §2

gp91phox = gp91phox expression in substantia nigra, Western blot and DAB immunostaining; type: in vivo, C57BL/6 mice
Method: as §1, §2

BV2 microglial cells = assay: LPS-induced iNOS activation (nitrite, Griess reagent) in BV2 microglial cells; type: cell-based, mouse; details: 30 min pretreatment
Method: Two cell models of neuroinflammation were used to evaluate the anti-neuroinflammatory property of diapocynin including the mouse BV2 microglial cell line, as well as primary microglia isolated from mouse brains. BV2 cells were obtained from the American Tissue Culture Collection. BV2 cells were maintained in RPMI containing 10% FBS and 100 units of pen/strep at 37° C. and 5% CO2. For treatments, RPMI containing 2% FBS and 100 units of pen/strep was used.
Inducible nitric oxide synthase (iNOS or NOS2) activation was assessed by measuring nitrite levels using Griess reagent in a 96-well format (70-72). Each well contained 40,000 BV2 cells or 100,000 primary microglia. BV2 cells were cultured in 150 μl of RPMI containing 10% FBS and pen/strep, and the primary microglia were cultured in DMEM-F12 containing 10% FBS, pen/strep, sodium pyruvate (S/P), Q, and NEAAs. One day after culturing, cells were replaced with 150 μl of their respective complete media containing only 2% FBS. Both cell types were pretreated with diapocynin (10 μM) and apocynin (100 μM) for 30 min before LPS stimulation (1 μg/ml LPS for BV2 cells and 100 ng/ml for primary microglia), and the plates were incubated at 37° C. After 24 hr at 37° C., 100 μl of supernatant were removed and placed into a new 96 well plate, to which 100 μl of Griess reagent were added. The plate was shaken on a plate shaker for 10 min before being read in a plate reader at 540 nm.
This example generally followed the cell culture, treatment, and analysis steps of Example 4 above.
Diapocynin diacetate (diapodiacetate or diapo diace) suppresses LPS-induced NOS-2 in BV2 microglial cells (FIG. 21). BV-2 cells were plated in 96 well plates, 40,000 cells per well, and treated in 150 μl of RPMI containing 2% heat inactivated FBS and penicillin/streptomycin. Diapo diacetate was used on the cells as a 30 min pretreatment, then LPS (1 μg/ml) was added. All treatments were allowed to incubate at 37° C. for 24 hr, starting from the addition of LPS. One hundred microliter aliquots of supernatant from each well were combined with 100 μl of Griess reagent (Sigma) in a 96-well plate and allowed to shake for 10 minutes before being read on the plate reader. The percent nitrite level for the treatments compared to the control was graphed.

[1] = test system: inducible nitric oxide synthase (iNOS/NOS2); assay: iNOS expression in substantia nigra, Western blot and immunostaining; type: in vivo, C57BL/6 mice; details: MPTP-treated mice that also received diapocynin 300 mg/kg gavage
Method: as §1
Four days after MPTP treatment, mice were perfused with 4% paraformaldehyde (PFA) and post-fixed with PFA and 30% sucrose, respectively. Next, fixed brains were cut into 30 μm sections and kept in 30% sucrose-ethylene glycol solutions at −20° C. On the day of staining, sections were rinsed with phosphate-buffered saline (PBS) and incubated with different primary antibodies, including anti-IBA-1 (DAKO, Carpinteria, Calif.), anti-GFAP (Millipore, Billerica, Mass.), anti-iNOS (Santa Cruz Biotechnology, Santa Cruz, Calif.), anti-3NT (Millipore), anti-4HNE (R&D Systems, Minneapolis, Minn.) and anti-gp91phox (Santa Cruz Biotechnology) for overnight at 4° C. Appropriate secondary antibodies (Alexa Fluor 488, 594, or 555 from Invitrogen, Carlsbad, Calif.) were used followed by incubation with 10 μg/ml Hoechst 33342 for 5 min at room temperature to stain the nucleus. Sections were viewed under a Nikon inverted fluorescence microscope (model TE-2000U; Nikon, Tokyo, Japan). Images were captured with a SPOT digital camera (Diagnostic Instruments, Inc., Sterling Heights, Mich.).
Mice were sacrificed 4 days or 7 days after MPTP treatment and substantia nigra tissue was dissected out. Brain lysates containing equal amounts of protein were loaded in each lane and separated on a 10 to 12% SDS polyacrylamide gel, as described previously (48). After the separation, proteins were transferred to a nitrocellulose membrane and nonspecific binding sites were blocked by treating with Li-Cor Odyssey blocking buffer (Li-Cor Biosciences, Lincoln, Nebr.). The membranes were then incubated with different primary antibodies including anti-TH (Millipore), anti-iNOS (Calbiochem), anti-3NT (Millipore) and anti-4HNE (R&D Systems). […]

4-hydroxynonenol (4-HNE) = assay: 4-hydroxynonenol expression in substantia nigra, Western blot and immunostaining; type: in vivo, C57BL/6 mice
Method: as §1, §2

COc1cc(C(C)=O)cc(-c2cc(C(C)=O)cc(OC)c2O)c1O [diapocynin]
MPTP-induced expression of 3-NT in substantia nigra (3-nitrotyrosine (3-NT); diapocynin 300 mg/kg gavage, MPTP 25 mg/kg i.p.): attenuated
TH positive cells colocalized with 3-NT (3-nitrotyrosine (3-NT); double-labeling, MPTP-treated mice that also received diapocynin 300 mg/kg): very few
IBA-1 protein expression in substantia nigra (IBA-1): inhibition
MPTP-induced expression of gp91phox in substantia nigra (gp91phox; diapocynin 300 mg/kg gavage, MPTP 25 mg/kg i.p., Western blot and DAB immunostaining): attenuated
colocalization of gp91phox with IBA-1 positive cells (gp91phox; double-labeling, mice treated with MPTP and diapocynin 300 mg/kg): no colocalization
attenuating LPS-induced iNOS activation, compared with apocynin 100 μM (BV2 microglial cells; BV2 cells, diapocynin 10 μM, LPS 1 μg/ml 24 hr): just as effective
pEC50 (BV2 microglial cells; Mus musculus, BV-2 cells, LPS 1 μg/ml, Griess reagent, non-linear regression of dose response curve, read-out: EC50, block of LPS-induced iNOS activation (nitrite level)): 5.11
colocalized cells of iNOS and GFAP in substantia nigra [1]: very few colocalized cells
colocalized cells of iNOS and IBA-1 in substantia nigra [1]: very few colocalized cells
staining of iNOS in substantia nigra [1]: marked decrease
MPTP-induced increase in expression of 4-HNE in substantia nigra (4-hydroxynonenol (4-HNE); diapocynin 300 mg/kg gavage, MPTP 25 mg/kg i.p., Western blot and immunostaining): attenuated
colocalized cells of TH and 4-HNE in substantia nigra (4-hydroxynonenol (4-HNE); double-label immunostaining, MPTP- and diapocynin-treated mice): very few colocalized cells
